Assay results reported in ChEMBL document CHEMBL3745656, “Discovery of Inhibitors That Overcome the G1202R Anaplastic Lymphoma Kinase Resistance Mutation” (J Med Chem, 2015).

What was measured:
in vivo [1] = conditions: mouse, brain, iv, 2 mg/kg
in vivo [2] = conditions: mouse, brain, po, 10 mg/kg
[3] = Plasma concentration in mouse at 2 mg/kg, iv after 2 hrs; assay type: ADME, organism-based
[4] = Plasma concentration in mouse at 10 mg/kg, po after 8 hrs; assay type: ADME, organism-based
[5] = Plasma concentration in mouse at 10 mg/kg, po after 2 hrs; assay type: ADME, organism-based
[6] = Plasma concentration in mouse at 2 mg/kg, iv after 8 hrs; assay type: ADME, organism-based

Row | concentration at 2 h [3] [nM] | concentration at 8 h [4] [nM] | concentration at 2 h [5] [nM] | concentration at 8 h [6] [nM] | SMILES | concentration at 8 h (in vivo [1]) [nM] | concentration at 8 h (in vivo [2]) [nM]
1 |  |  |  |  | CCc1cc2c(cc1-c1cnn(CC(=O)N(C)C)c1)C(C)(C)c1[nH]c3cc(C#N)ccc3c1C2=O | 4 | 4
2 | 210 | 170 | 210 | 50 | CCc1cc2c(cc1-c1cnn(CCCN(C)C)c1)C(C)(C)c1[nH]c3cc(C#N)ccc3c1C2=O | 80 | 
